Assays:
human M2 receptor [1] = target: T1, human M2 receptor (Homo sapiens, UniProt P08172); conditions: for EC50: Receptor activity EC50, M2-GIRK1/4 activation test, acetylcholine at EC20, allosteric potency, in some cases mean values from two or more determinations
T1 sequence (P08172 1-466): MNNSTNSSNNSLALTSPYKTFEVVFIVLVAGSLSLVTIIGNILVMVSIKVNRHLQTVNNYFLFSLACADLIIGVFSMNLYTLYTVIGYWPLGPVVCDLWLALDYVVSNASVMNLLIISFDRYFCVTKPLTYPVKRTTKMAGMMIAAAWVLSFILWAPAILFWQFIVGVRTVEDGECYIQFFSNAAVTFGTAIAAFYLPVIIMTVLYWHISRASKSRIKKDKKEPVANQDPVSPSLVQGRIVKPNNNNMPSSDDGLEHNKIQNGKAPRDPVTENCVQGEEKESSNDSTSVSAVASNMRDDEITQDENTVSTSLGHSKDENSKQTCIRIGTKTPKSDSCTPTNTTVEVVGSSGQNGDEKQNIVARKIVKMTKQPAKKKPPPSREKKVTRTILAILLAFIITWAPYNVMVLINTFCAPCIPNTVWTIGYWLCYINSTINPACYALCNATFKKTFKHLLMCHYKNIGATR

human M2 receptor [2] = target: T1, human M2 receptor; assay type: cell-based; conditions: shift in the acetylcholine dose-response curve (Allosteric EC50 shift, GraphPad PRISM); α >1 = positive cooperativity

| SMILES | EC50 (human M2 receptor [1]) [nM] | Cooperativity (alpha factor) (human M2 receptor [2]) | Emax (human M2 receptor [1]; read-out: Efficiency) [%] |
| --- | --- | --- | --- |
| CCC(NC(=O)c1cn(-c2ccc(F)cc2F)c2nc(N3CC[C@H](F)C3)ccc2c1=O)C(F)(F)F (stereo partly drawn) [Example 71, 1-(2,4-Difluorophenyl)-7-[(3S)-3-fluoropyrrolidin-1-yl]-4-oxo-N-[1,1,1-trifluorobutan-2-yl]-1,4-dihydro-1,8-naphthyridine-3-carboxamide] | 39 | 30 | – |
| CC[C@H](NC(=O)c1cn(-c2ccc(F)cc2F)c2nc(NCCF)ccc2c1=O)C(F)(F)F [Example 87, 1-(2,4-Difluorophenyl)-7-[(2-fluoroethyl)amino]-4-oxo-N-[(2S)-1,1,1-trifluorobutan-2-yl]-1,4-dihydro-1,8-naphthyridine-3-carboxamide] | 129 | 26 | – |
| O=C(NC12CC3CC(CC(C3)C1)C2)c1cn(-c2ccc(F)cc2F)c2nc(NCC(F)(F)F)ccc2c1=O [Example 90, 1-(2,4-Difluorophenyl)-4-oxo-N-(tricyclo[3.3.1.1^3,7]dec-1-yl)-7-[(2,2,2-trifluoroethyl)amino]-1,4-dihydro-1,8-naphthyridine-3-carboxamide] | 298 | 11 | – |
| CC12CCC(NC(=O)c3cn(-c4ccc(F)cc4F)c4nc(NCC(F)(F)F)ccc4c3=O)(CC1)CC2 [Example 98, 1-(2,4-Difluorophenyl)-N-(4-methylbicyclo[2.2.2]oct-1-yl)-4-oxo-7-[(2,2,2-trifluoroethyl)amino]-1,4-dihydro-1,8-naphthyridine-3-carboxamide] | 61 | 14 | – |
| CC[C@@H](NC(=O)c1cn(-c2ccc(F)cc2F)c2nc(NCC(F)F)ccc2c1=O)C(F)(F)F [Example 123, 7-[(2,2-Difluoroethyl)amino]-1-(2,4-difluorophenyl)-4-oxo-N-[(2R)-1,1,1-trifluorobutan-2-yl]-1,4-dihydro-1,8-naphthyridine-3-carboxamide] | 115 | 14 | – |
| O=C(Nc1c(Cl)cccc1Cl)c1cn(-c2ccc(F)cc2F)c2nc(NCC(F)(F)F)ccc2c1=O [Example 163, N-(2,6-Dichlorophenyl)-1-(2,4-difluorophenyl)-4-oxo-7-[(2,2,2-trifluoroethyl)amino]-1,4-dihydro-1,8-naphthyridine-3-carboxamide] | 173 | 13 | – |
| COC(=O)N1CCN(c2ccc3c(=O)c(C(=O)Nc4c(Cl)cccc4Cl)cn(-c4ccc(F)cc4F)c3n2)CC1 [Example 164, Methyl 4-{6-[(2,6-dichlorophenyl)carbamoyl]-8-(2,4-difluorophenyl)-5-oxo-5,8-dihydro-1,8-naphthyridin-2-yl}piperazine-1-carboxylate] | 31 | 21 | – |
| O=C(NC12CC3CC(CC(C3)C1)C2)c1cn(-c2ccc(F)cc2F)c2nc(N3CCC3=O)ccc2c1=O [Example 168] | 60 | 13 | – |
| CCC(NC(=O)c1cn(-c2ccc(F)cc2F)c2nc(N3C[C@@H](O)CC3=O)ccc2c1=O)C(F)(F)F (stereo partly drawn) [Example 176] | 95 | 28 | 94.1 |
| CC(C)(NC(=O)c1cn(-c2ccc(F)cc2F)c2nc(N3CC[C@@H](OC(F)F)C3)ccc2c1=O)c1c(F)cccc1F [Example 188, 7-[(3R)-3-(Difluoromethoxy)pyrrolidin-1-yl]-1-(2,4-difluorophenyl)-N-[2-(2,6-difluorophenyl)propan-2-yl]-4-oxo-1,4-dihydro-1,8-naphthyridine-3-carboxamide] | 113 | 9 | – |
| CC[C@@H](NC(=O)c1cn(-c2ccc(F)cc2F)c2nc(N3C[C@@H](OC)CC3=O)ccc2c1=O)C(F)(F)F [Example 193, 1-(2,4-Difluorophenyl)-7-[(4S)-4-methoxy-2-oxopyrrolidin-1-yl]-4-oxo-N-[(2R)-1,1,1-trifluorobutan-2-yl]-1,4-dihydro-1,8-naphthyridine-3-carboxamide] | 36 | 50 | – |
| O=C(Nc1c(Cl)cccc1Cl)c1cn(-c2ccc(F)cc2F)c2nc(N3CC[C@H](O)C3=O)ccc2c1=O [Example 202, N-(2,6-Dichlorophenyl)-1-(2,4-difluorophenyl)-7-[(3S)-3-hydroxy-2-oxopyrrolidin-1-yl]-4-oxo-1,4-dihydro-1,8-naphthyridine-3-carboxamide] | 89 | 18 | – |
| CC[C@@H](NC(=O)c1cn(-c2ccc(F)cc2F)c2nc(N3CCC3=O)ccc2c1=O)C(F)(F)F [Example 205, 1-(2,4-Difluorophenyl)-4-oxo-7-(2-oxoazetidin-1-yl)-N-[(2R)-1,1,1-trifluorobutan-2-yl]-1,4-dihydro-1,8-naphthyridine-3-carboxamide] | 105 | 4 | – |
| O=C(NC(c1ccccc1Cl)C(F)(F)F)c1cn(-c2ccc(F)cc2F)c2nc(N3CC[C@H](F)C3)ccc2c1=O (stereo partly drawn) [Example 217, N-[1-(2-Chlorophenyl)-2,2,2-trifluoroethyl]-1-(2,4-difluorophenyl)-7-[(3S)-3-fluoropyrrolidin-1-yl]-4-oxo-1,4-dihydro-1,8-naphthyridine-3-carboxamide] | 36 | 18 | – |

The remaining compounds from weak to strong by EC50 (human M2 receptor [1]), led by results:

| EC50 (human M2 receptor [1]) [nM] | Cooperativity (alpha factor) (human M2 receptor [2]) | SMILES | Emax (human M2 receptor [1]; read-out: Efficiency) [%] |
| --- | --- | --- | --- |
| 413 | 20 | O=C(NC(C(F)(F)F)C(F)(F)F)c1cn(-c2ccc(F)cc2F)c2nc(NCCF)ccc2c1=O [Example 89, 1-(2,4-Difluorophenyl)-7-[(2-fluoroethyl)amino]-N-(1,1,1,3,3,3-hexafluoropropan-2-yl)-4-oxo-1,4-dihydro-1,8-naphthyridine-3-carboxamide] | – |
| 213 | 8 | CC(NC(=O)c1cn(-c2ccc(F)cc2F)c2nc(NCC(F)(F)F)ccc2c1=O)C(F)(F)F (stereo not drawn) [Example 93, 1-(2,4-Difluorophenyl)-4-oxo-7-[(2,2,2-trifluoroethyl)amino]-N-[1,1,1-trifluoropropan-2-yl]-1,4-dihydro-1,8-naphthyridine-3-carboxamide] | – |
| 209 | 9 | O=C(NC12CCC(F)(CC1)CC2)c1cn(-c2ccc(F)cc2F)c2nc(NCC(F)(F)F)ccc2c1=O [Example 97, 1-(2,4-Difluorophenyl)-N-(4-fluorobicyclo[2.2.2]oct-1-yl)-4-oxo-7-[(2,2,2-trifluoroethyl)amino]-1,4-dihydro-1,8-naphthyridine-3-carboxamide] | – |
| 138 | 5 | CCC(NC(=O)c1cn(-c2ccc(F)cc2F)c2nc(N3CCCC3=O)ccc2c1=O)C(F)(F)F (stereo not drawn) [Example 177] | – |
| 98 | 10 | O=C(NC12CC3CC(CC(C3)C1)C2)c1cn(-c2ccc(F)cc2F)c2nc(N3CC(F)CC3=O)ccc2c1=O (stereo not drawn) [Example 187, 1-(2,4-Difluorophenyl)-7-[4-fluoro-2-oxopyrrolidin-1-yl]-4-oxo-N-(tricyclo[3.3.1.1^3,7]dec-1-yl)-1,4-dihydro-1,8-naphthyridine-3-carboxamide] | – |
| 62 | 8 | CC[C@H](NC(=O)c1cn(-c2ccccc2F)c2nc(N(C)C)ccc2c1=O)C(F)(F)F [Example 203, 7-(Dimethylamino)-1-(2-fluorophenyl)-4-oxo-N-[(2S)-1,1,1-trifluorobutan-2-yl]-1,4-dihydro-1,8-naphthyridine-3-carboxamide] | – |
| 59 | 36 | CC12CCC(NC(=O)c3cn(-c4ccc(F)cc4F)c4nc(N5CC(O)CC5=O)ccc4c3=O)(CC1)CC2 (stereo not drawn) [Example 181] | – |
| 57 | 18 | O=C(NC12CC3CC(CC(C3)C1)C2)c1cn(-c2ccc(F)cc2F)c2nc(N3CCOC3=O)ccc2c1=O [Example 128, 1-(2,4-Difluorophenyl)-4-oxo-7-(2-oxo-1,3-oxazolidin-3-yl)-N-(tricyclo[3.3.1.1^3,7]dec-1-yl)-1,4-dihydro-1,8-naphthyridine-3-carboxamide] | – |
| 54 | 9 | CC[C@@H](NC(=O)c1cn(-c2ccc(F)cc2F)c2nc(N3CCCC3)ccc2c1=O)C(F)(F)F [Example 192, 1-(2,4-Difluorophenyl)-4-oxo-7-(pyrrolidin-1-yl)-N-[(2R)-1,1,1-trifluorobutan-2-yl]-1,4-dihydro-1,8-naphthyridine-3-carboxamide] | – |
| 46 | 12 | CC[C@@H](NC(=O)c1cn(-c2ccc(F)cc2F)c2nc(N3C[C@@H]4C(COC)[C@@H]4C3)ccc2c1=O)C(F)(F)F (stereo partly drawn) [Example 190, 1-(2,4-Difluorophenyl)-7-[(1R,5S)-6-(methoxymethyl)-3-azabicyclo[3.1.0]hex-3-yl]-4-oxo-N-[(2R)-1,1,1-trifluorobutan-2-yl]-1,4-dihydro-1,8-naphthyridine-3-carboxamide] | – |
| 35 | 26 | CN(CCF)c1ccc2c(=O)c(C(=O)NC(C(F)(F)F)C(F)(F)F)cn(-c3ccc(F)cc3F)c2n1 [Example 111, 1-(2,4-Difluorophenyl)-7-[(2-fluoroethyl)(methyl)amino]-N-(1,1,1,3,3,3-hexafluoropropan-2-yl)-4-oxo-1,4-dihydro-1,8-naphthyridine-3-carboxamide] | – |
